Reference: patent publication US8642580B2, “Combined therapy against tumors comprising substituted acryloyl distamycin derivatives and platinum derivatives” (priority 2000, dated 2014)

Legend:
[1] = tested on: disseminated L1210 murine leukemia; experiment: Antileukemic activity against disseminated L1210 murine leukemia; format: in vivo; settings: for ILS % (increase in life span): L1210 10^5 cells/mouse IV day 0; for ILS % (increase in life span) / Tox (number of toxic deaths/number of mice): PNU 166196 0.26 mg/kg/day iv days +1,2, combination same doses and schedule; for Toxicity (in words): single agents: cisplatin 5.9 mg/kg day +3, carboplatin 135 mg/kg day +3, PNU 166196 0.26 mg/kg days +1,2
[2] = tested on: human colon carcinoma HCT-116 (low/medium GST and MMR deficiency); experiment: Antitumor activity against subcutaneous implanted HCT-116 human colon carcinoma; format: in vivo; settings: for Log cell Kill total / WL % day of nadir / WL % / Tumor free/total mice: IV q7dx3; for Log cell Kill total / WL % day of nadir / WL % / T/C % (tumor regression) / Tumor free/total mice: PNU 166196 0.4 mg/kg, cisplatin 2 mg/kg; for WL %: at nadir; for T/C % (tumor regression): day 20 after treatment, IV q7dx3 from day 7 after implant, PNU 166196 48 hours after cisplatin, NCI: T/C ≦ 42 active; for Tumor free/total mice: on day 40 after tumor implant
[3] = Table 2, carboplatin 135 mg/kg iv day +3
[4] = Table 1, cisplatin 5.9 mg/kg iv day +3

Row | Structure (SMILES) | ILS % (increase in life span) [1, 3] [%] | Tox (number of toxic deaths/number of mice) [1, 3] | Toxicity (in words) [1] | ILS % (increase in life span) [1, 4] [%] | Log cell Kill total [2] | WL % day of nadir [2] [days] | WL % [2] [%] | T/C % (tumor regression) [2] [%] | Tumor free/total mice [2] | Tox (number of toxic deaths/number of mice) [1, 4] | Toxicity (in words) ([2]; single agents: cisplatin 2 mg/kg q7dx3, PNU 166196 0.4 mg/kg q7dx3)
1 | N.N.O=C([O-])C1(C(=O)[O-])CCC1.[Pt+2] [Carboplatin, carboplatin, reference compound] | 50 | 0/10 | without toxicity | – | – | – | – | – | – | – | –
2 | N.N.[Cl][Pt][Cl] [Cisplatin, cisplatin, reference compound] | – | – | – | 67 | 0 | 24 | 12 | 92 | 0/7 | – | –
3 | C=C(Br)C(=O)Nc1cc(C(=O)Nc2cc(C(=O)Nc3cc(C(=O)Nc4cc(C(=O)NCCNC(=N)N)n(C)c4)n(C)c3)n(C)c2)n(C)c1.Cl [PNU 166196, N-(5-{[(5-{[(5-{[(2-{[amino(imino)methyl]amino}ethyl)amino]carbonyl}-1-methyl-1H-pyrrol-3-yl)amino]carbonyl}-1-methyl-1H-pyrrol-3-yl)amino]carbonyl}-1-methyl-1H-pyrrol-3-yl)-4-[(2-bromoacryloyl)amino]-1-methyl-1H-pyrrole-2-carboxamide hydrochloride] | 33 | 0/10 | without toxicity | 33 | 0.15 | 29 | 12 | 61 | 0/8 | 0/10 | without toxicity
